According to US9326973B2, “Hepatitis C virus inhibitors” (priority 2012, dated 2016):

What follows are compounds tested on HCV replicon, genotype-1a variant with glutamine 30 changed to glutamate in the NS5A protein (assay: microbe, parasite or virus in culture). Conditions: HCV replicon genotype 1a Q30E (Q→E) variant; test compound titrated with an NS5A-targeting compound (BMS-790052 fixed at 200 nM); ranking of synergist activity.
Type: cell-based, HCV genotype 1a
Method in brief: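 Synergy was assessed by combining several fixed amounts of an NS5A-targeting compound with a titration of the second compound of interest.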
For `CC(C)(C)[C@H](NC(=O)C(C)(C)n1ncnn1)c1nc(-c2ccc(-c3ccc(-c4c[nH]c([C@@H](NC(=O)C(C)(C)n5ncnn5)C(C)(C)C)n4)cc3)cc2)c[nH]1` [Compound S-276], the “Fold-Synergistic 1a (Q30E)” value was >100 fold.
For `CN1CCN(C(=O)C(=O)N[C@H](c2nc(-c3ccc(-c4ccc(-c5c[nH]c([C@@H](NC(=O)C(=O)N6CCN(C)CC6)C(C)(C)C)n5)cc4)cc3)c[nH]2)C(C)(C)C)CC1` [Compound W-35], the “Fold-Synergistic 1a (Q30E)” value was >100 fold.
For `Cc1nn(C)c2ncc(C(=O)N3CCC[C@H]3c3ncc(-c4ccc(-c5ccc(-c6cnc([C@@H]7CCCN7C(=O)c7cnc8c(c(C)nn8C)c7Cl)[nH]6)cc5)cc4)[nH]3)c(Cl)c12` [Compound S-132], the “Fold-Synergistic 1a (Q30E)” value was <10 fold.
For `CC(C)[C@H](NC(=O)C1CC(=O)C1)c1nc(-c2ccc(-c3ccc(-c4c[nH]c([C@@H](NC(=O)C5CC(=O)C5)C(C)C)n4)cc3)cc2)c[nH]1` [Compound W-172], the “Fold-Synergistic 1a (Q30E)” value was >10 fold.
For `CC(C)(C(=O)N[C@H](c1nc(-c2ccc(-c3ccc(-c4c[nH]c([C@@H](NC(=O)C(C)(C)C(=O)N5CC[C@@H](O)C5)C(C)(C)C)n4)cc3)cc2)c[nH]1)C(C)(C)C)C(=O)N1CC[C@@H](O)C1` [Compound W-151], the “Fold-Synergistic 1a (Q30E)” value was >10 fold.
With `CC(C)(C)OC(=O)N1C[C@H](O)C[C@H]1C(=O)N[C@H](c1nc(-c2ccc(-c3ccc(-c4c[nH]c([C@@H](NC(=O)[C@@H]5C[C@@H](O)CN5C(=O)OC(C)(C)C)C5(C)CC5)n4)cc3)cc2)c[nH]1)C1(C)CC1` [Compound W-95] the “Fold-Synergistic 1a (Q30E)” value was >100 fold.
In the case of `CC(C)(C)[C@H](NC(=O)[C@H]1C[C@](C)(O)C1)c1nc(-c2ccc(-c3ccc(-c4c[nH]c([C@@H](NC(=O)[C@H]5C[C@](C)(O)C5)C(C)(C)C)n4)cc3)cc2)c[nH]1` [Compound W-170], the “Fold-Synergistic 1a (Q30E)” value was >100 fold.
In the case of `CC(C)[C@H](NC(=O)C(C)(C)N1C[C@@H](C)O[C@@H](C)C1)c1nc(-c2ccc(-c3ccc(-c4c[nH]c([C@@H](NC(=O)C(C)(C)N5C[C@@H](C)O[C@@H](C)C5)C(C)C)n4)cc3)cc2)c[nH]1` [Compound W-161], the “Fold-Synergistic 1a (Q30E)” value was >100 fold.
`CC(C)(C)[C@H](NC(=O)C(F)(F)C1(O)CCC1)c1nc(-c2ccc(-c3ccc(-c4c[nH]c([C@@H](NC(=O)C(F)(F)C5(O)CCC5)C(C)(C)C)n4)cc3)cc2)c[nH]1` [Compound P-165] was tested, and the “Fold-Synergistic 1a (Q30E)” value was >100 fold.
For `COC(=O)N[C@H](C(=O)N[C@@H](C)c1nc(-c2ccc(-c3ccc(-c4c[nH]c([C@H](C)NC(=O)[C@@H](NC(=O)OC)C(C)C)n4)cc3)cc2)c[nH]1)C(C)C` [Compound N-38], the “Fold-Synergistic 1a (Q30E)” value was <10 fold.
With `CC(C)(C)[C@H](NC(=O)C1(c2ccc(F)cc2)CC1(C)C)c1nc(-c2ccc(-c3ccc(-c4c[nH]c([C@@H](NC(=O)C5(c6ccc(F)cc6)CC5(C)C)C(C)(C)C)n4)cc3)cc2)c[nH]1` (some centres unmarked) [Compound S-285] the “Fold-Synergistic 1a (Q30E)” value was >100 fold.
With `O=C(c1cccc2c1OCC2)N1CCC[C@H]1c1ncc(-c2ccc(-c3ccc(-c4cnc([C@@H]5CCCN5C(=O)c5cccc6c5OCC6)[nH]4)cc3)cc2)[nH]1` [Compound S-139] the “Fold-Synergistic 1a (Q30E)” value was >10 fold.
For `O=C(c1cnccc1C(F)(F)F)N1CCC[C@H]1c1ncc(-c2ccc(-c3ccc(-c4cnc([C@@H]5CCCN5C(=O)c5cnccc5C(F)(F)F)[nH]4)cc3)cc2)[nH]1` [Compound S-134], the “Fold-Synergistic 1a (Q30E)” value was <10 fold.
`CC(C)[C@H](NC(=O)C(C)(C)C)c1nc(-c2ccc(-c3ccc(-c4c[nH]c([C@@H](NC(=O)C(C)(C)C)C(C)C)n4)cn3)cc2)c[nH]1` [Compound N-103] was tested, and the “Fold-Synergistic 1a (Q30E)” value was >100 fold.
`COC(=O)N[C@@H](C(=O)N[C@@H](C)c1nc(-c2ccc(-c3ccc(-c4c[nH]c([C@H](C)NC(=O)[C@H](NC(=O)OC)C(C)C)n4)cc3)cc2)c[nH]1)C(C)C` [Compound N-37] was tested, and the “Fold-Synergistic 1a (Q30E)” value was >10 fold.
For `COC(=O)N[C@@H](C(=O)N[C@H](c1nc(-c2ccc(-c3ccc(-c4c[nH]c([C@@H](NC(=O)[C@H](NC(=O)OC)C(C)C)C5CCCC5)n4)cc3)cc2)c[nH]1)C1CCCC1)C(C)C` [Compound N-43], the “Fold-Synergistic 1a (Q30E)” value was >10 fold.
`CC(C)CC(=O)NC1(c2nc(-c3ccc(-c4ccc(-c5c[nH]c(C6(NC(=O)CC(C)C)CCC6)n5)cc4)cc3)c[nH]2)CCC1` [Compound N-11] was tested, and the “Fold-Synergistic 1a (Q30E)” value was <10 fold.
`CC(C)(C)[C@H](NC(=O)C1CCC2(CC1)CC2)c1nc(-c2ccc(-c3ccc(-c4c[nH]c([C@@H](NC(=O)C5CCC6(CC5)CC6)C(C)(C)C)n4)cc3)cc2)c[nH]1` (some centres unmarked) [Compound N-123] was tested, and the “Fold-Synergistic 1a (Q30E)” value was >100 fold.
In the case of `O=C(Cc1ccc2ccccc2c1)N1CCC[C@H]1c1ncc(-c2ccc(-c3ccc(-c4cnc([C@@H]5CCCN5C(=O)Cc5ccc6ccccc6c5)[nH]4)cc3)cc2)[nH]1` [Compound S-145], the “Fold-Synergistic 1a (Q30E)” value was >10 fold.
In the case of `CN1CCC(C(=O)N[C@H](c2nc(-c3ccc(-c4ccc(-c5c[nH]c([C@@H](NC(=O)C6CCN(C)CC6)C(C)(C)C)n5)cc4)cc3)c[nH]2)C(C)(C)C)CC1` [Compound S-268], the “Fold-Synergistic 1a (Q30E)” value was >10 fold.
For `CC(C)CC(=O)N[C@@H](C)c1nc(-c2ccc(-c3ccc(-c4c[nH]c([C@H](C)NC(=O)CC(C)C)n4)cc3)cc2)c[nH]1` [Compound N-39], the “Fold-Synergistic 1a (Q30E)” value was >10 fold.
In the case of `CC(C)(C(=O)N[C@H](c1nc(-c2ccc(-c3ccc(-c4c[nH]c([C@@H](NC(=O)C(C)(C)C(=O)N5CCC(F)(F)CC5)C(C)(C)C)n4)cc3)cc2)c[nH]1)C(C)(C)C)C(=O)N1CCC(F)(F)CC1` [Compound W-141], the “Fold-Synergistic 1a (Q30E)” value was >100 fold.
For `O=C(c1cccnc1)N1CCC[C@H]1c1ncc(-c2ccc(-c3ccc(-c4cnc([C@@H]5CCCN5C(=O)c5cccnc5)[nH]4)cc3)cc2)[nH]1` [Compound S-185], the “Fold-Synergistic 1a (Q30E)” value was <10 fold.
In the case of `COC1CCN(C(=O)C(C)(C)C(=O)N[C@H](c2nc(-c3ccc(-c4ccc(-c5c[nH]c([C@@H](NC(=O)C(C)(C)C(=O)N6CCC(OC)CC6)C(C)(C)C)n5)cc4)cc3)c[nH]2)C(C)(C)C)CC1` [Compound W-143], the “Fold-Synergistic 1a (Q30E)” value was >100 fold.
`COC(=O)N[C@@H]1CCCCC1C(=O)N[C@H](c1nc(-c2ccc(-c3ccc(-c4c[nH]c([C@@H](NC(=O)C5CCCC[C@H]5NC(=O)OC)C(C)(C)C)n4)cc3)cc2)c[nH]1)C(C)(C)C` (some centres unmarked) [Compound S-275] was tested, and the “Fold-Synergistic 1a (Q30E)” value was >100 fold.
For `CC(C)(C)OC(=O)N1[C@@H]2CC[C@@H](C2)[C@H]1C(=O)N[C@H](c1nc(-c2ccc(-c3ccc(-c4c[nH]c([C@@H](NC(=O)[C@@H]5[C@H]6CC[C@H](C6)N5C(=O)OC(C)(C)C)C(C)(C)C)n4)cc3)cc2)c[nH]1)C(C)(C)C` [Compound W-121], the “Fold-Synergistic 1a (Q30E)” value was >100 fold.
`O=C(C1CC1)N1CCC[C@H]1c1ncc(-c2ccc(-c3ccc(-c4cnc([C@@H]5CCCN5C(=O)C5CC5)[nH]4)cc3)cc2)[nH]1` [Compound S-109] was tested, and the “Fold-Synergistic 1a (Q30E)” value was <10 fold.
With `CCCC[C@@H](CC(=O)OC(C)(C)C)C(=O)N[C@H](c1nc(-c2ccc(-c3ccc(-c4c[nH]c([C@@H](NC(=O)[C@@H](CCCC)CC(=O)OC(C)(C)C)C(C)(C)C)n4)cc3)cc2)c[nH]1)C(C)(C)C` [Compound S-260] the “Fold-Synergistic 1a (Q30E)” value was >100 fold.
For `CC(C)(C)[C@H](NC(=O)C(=O)c1ccco1)c1nc(-c2ccc(-c3ccc(-c4c[nH]c([C@@H](NC(=O)C(=O)c5ccco5)C(C)(C)C)n4)cc3)cc2)c[nH]1` [Compound W-20], the “Fold-Synergistic 1a (Q30E)” value was >100 fold.
For `CC(C)(C)C(=O)N[C@H](c1nc(-c2ccc(-c3ccc(-c4c[nH]c([C@@H](NC(=O)C(C)(C)C)C5CCCC5)n4)cc3)cc2)c[nH]1)C1CCCC1` [Compound N-44], the “Fold-Synergistic 1a (Q30E)” value was >100 fold.
`CCC(C)[C@H](NC(=O)[C@H](NC(=O)OC)C(C)C)c1nc(-c2ccc(-c3ccc(-c4c[nH]c([C@@H](NC(=O)[C@H](NC(=O)OC)C(C)C)C(C)CC)n4)cc3)cc2)c[nH]1` (some centres unmarked) [Compound N-32] was tested, and the “Fold-Synergistic 1a (Q30E)” value was >10 fold.
With `CCCC(C)(C)C(=O)N1CCC[C@H]1c1ncc(-c2ccc(-c3ccc(-c4cnc([C@@H]5CCCN5C(=O)C(C)(C)CCC)[nH]4)cc3)cc2)[nH]1` [Compound S-190] the “Fold-Synergistic 1a (Q30E)” value was <10 fold.
In the case of `CC(C)(C)[C@H](NC(=O)C(=O)N1CCCCCC1)c1nc(-c2ccc(-c3ccc(-c4c[nH]c([C@@H](NC(=O)C(=O)N5CCCCCC5)C(C)(C)C)n4)cc3)cc2)c[nH]1` [Compound W-32], the “Fold-Synergistic 1a (Q30E)” value was >100 fold.
With `N#Cc1ccccc1C(=O)N1CCC[C@H]1c1ncc(-c2ccc(-c3ccc(-c4cnc([C@@H]5CCCN5C(=O)c5ccccc5C#N)[nH]4)cc3)cc2)[nH]1` [Compound S-127] the “Fold-Synergistic 1a (Q30E)” value was <10 fold.
For `Cc1cccc(C(=O)N2CCC[C@H]2c2ncc(-c3ccc(-c4ccc(-c5cnc([C@@H]6CCCN6C(=O)c6cccc(C)n6)[nH]5)cc4)cc3)[nH]2)n1` [Compound S-191], the “Fold-Synergistic 1a (Q30E)” value was <10 fold.
`CC1([C@H](NC(=O)[C@@]2(C)CCC(F)(F)CO2)c2nc(-c3ccc(-c4ccc(-c5c[nH]c([C@@H](NC(=O)[C@@]6(C)CCC(F)(F)CO6)C6(C)CC6)n5)cc4)cc3)c[nH]2)CC1` [Compound Y-81] was tested, and the “Fold-Synergistic 1a (Q30E)” value was >100 fold.
With `C=C1CCC(C(=O)N[C@H](c2nc(-c3ccc(-c4ccc(-c5c[nH]c([C@@H](NC(=O)C6CCC(=C)CC6)C(C)(C)C)n5)cc4)cc3)c[nH]2)C(C)(C)C)CC1` [Compound N-118] the “Fold-Synergistic 1a (Q30E)” value was >100 fold.
For `COc1cccc2c(C(=O)N3CCC[C@H]3c3ncc(-c4ccc(-c5ccc(-c6cnc([C@@H]7CCCN7C(=O)c7nccc8c(OC)cccc78)[nH]6)cc5)cc4)[nH]3)nccc12` [Compound S-201], the “Fold-Synergistic 1a (Q30E)” value was >100 fold.
With `Cc1cc(-c2ccc(-c3c[nH]c([C@@H](NC(=O)C4(C)CCCC4)C(C)C)n3)cc2)ccc1-c1c[nH]c([C@@H](NC(=O)C2(C)CCCC2)C(C)C)n1` [Compound N-80] the “Fold-Synergistic 1a (Q30E)” value was >100 fold.
`CC(C)(C)[C@H](NC(=O)C(C)(C)n1cnnn1)c1nc(-c2ccc(-c3ccc(-c4c[nH]c([C@@H](NC(=O)C(C)(C)n5cnnn5)C(C)(C)C)n4)cc3)cc2)c[nH]1` [Compound S-277] was tested, and the “Fold-Synergistic 1a (Q30E)” value was >100 fold.
With `CC(C)[C@H](O)C(=O)N[C@H](c1nc(-c2ccc(-c3ccc(-c4c[nH]c([C@@H](NC(=O)[C@@H](O)C(C)C)C(C)(C)C)n4)cc3)cc2)c[nH]1)C(C)(C)C` [Compound L-78] the “Fold-Synergistic 1a (Q30E)” value was >100 fold.
